According to patent US9770439B2, “Hepatitis C virus inhibitors” (priority 2013, dated 2017):

Assays:
Assay type in all cases: cell-based
[1] = system: HCV replicon, genotype 1a L31V variant with leucine 31 changed to valine in the NS5A protein; settings: genotype 1a L31V replicon; test compound titrated with compound N47 fixed at 200 nM versus titrated singly
[2] = system: HCV replicon, genotype 1a Y93H variant with tyrosine 93 changed to histidine in the NS5A protein; settings: genotype 1a Y93H replicon; test compound titrated with compound N47 fixed at 200 nM versus titrated singly
Method: Combinations can be examined for synergistic activity using a variety of putative NS5A-targeting compounds and a variety of test compounds. […] The test compound can be chosen from compounds exemplified below, which were prepared by methods known in the art, or from others disclosed in the literature.
Similarly, BMS-790052 can be tested singly and in combination with a fixed amount of compound N47 in the HCV replicon cell based assay consisting of the genotype 1a Y93H variant with tyrosine 93 changed to histidine in the NS5A protein.

[3] = system: HCV replicon, genotype-1a variant with glutamine 30 changed to glutamate in the NS5A protein
Description: The NS5A synergistic inhibitory effect of test compounds can be determined using various amounts of an NS5A-targeting compound with titration of a second compound of interest. […] In one embodiment, the HCV genotype strain can be genotype 1a containing a change at amino acid 30 of the NS5A protein consisting of glutamine to glutamate. The test compound can be chosen from compounds listed above or from others present in the literature.

Row | Structure (SMILES) | Fold - Synergistic G-1a (L31V) [1] [Fold] | Fold - Synergistic G-1a (Y93H) [2] [Fold] | Fold-Synergistic 1a (Q30E) [3]
1 | COC(=O)N[C@@H](C(=O)N1CCCC1c1ncc(-c2ccc(-c3ccc(-c4cnc([C@@H]5CCCN5C(=O)[C@H]5CCCO5)[nH]4)cc3)cc2)[nH]1)c1ccccc1 (stereo partly drawn) | <10 | <10 | –
2 | CCOC(=O)NC1(C(=O)N[C@H](c2nc(-c3ccc(-c4ccc(-c5c[nH]c([C@@H](NC(=O)C6(NC(=O)OCC)CCCCC6)C(C)(C)C)n5)cc4)cc3)c[nH]2)C(C)(C)C)CCCCC1 [Compound W-250] | – | – | >100
3 | COC(=O)N[C@H](C(=O)N1CC[C@H](C)C1c1ncc(-c2ccc(-c3ccc(-c4cnc([C@@H]5[C@@H](C)CCN5C(=O)[C@@H](NC(=O)OC)C(C)C)[nH]4)cc3)cc2)[nH]1)C(C)C (stereo partly drawn) | >100 | >100 | –
4 | COC(=O)N[C@H](C(=O)N1CCCC1c1nc2ccc(C#CC#Cc3ccc4nc([C@@H]5CCCN5C(=O)[C@@H](NC(=O)OC)C(C)C)[nH]c4c3)cc2[nH]1)C(C)C (stereo partly drawn) | >100 | >10 | –
5 | COC(=O)N[C@H](C(=O)N1CCCC1c1ncc(C#Cc2ccc3cc(C#Cc4cnc([C@@H]5CCCN5C(=O)[C@@H](NC(=O)OC)C(C)C)[nH]4)ccc3c2)[nH]1)C(C)C (stereo partly drawn) | >10 | <10 | –
6 | CN(C)[C@H](C(=O)N1CCCC[C@H]1c1ncc(-c2ccc(-c3ccc(-c4cnc([C@@H]5CCCCN5C(=O)[C@@H](c5ccccc5)N(C)C)[nH]4)cc3)cc2)[nH]1)c1ccccc1 | <10 | >10 | –
7 | COC(=O)N[C@H](C(=O)N1C2C[C@@H]2C[C@H]1c1ncc(-c2ccc(C#Cc3ccc(-c4cnc([C@@H]5C[C@H]6C[C@H]6N5C(=O)[C@@H](NC(=O)OC)C(C)C)[nH]4)cc3)cc2)[nH]1)C(C)C (stereo partly drawn) | <10 | >10 | –
8 | COC(=O)N[C@H](C(=O)N1[C@@H]2C[C@@H]2C[C@H]1C(=O)Nc1ccc(C23CCC4C5CC6(c7ccc(NC(=O)[C@@H]8C[C@H]9C[C@H]9N8C(=O)[C@@H](NC(=O)OC)C(C)C)cc7)CC4C(C2)C(C6)C5C3)cc1)C(C)C | <10 | <10 | –
9 | O=C(C(=O)N1C(c2nc(-c3ccc(-c4ccc(-c5c[nH]c(C6C[C@@H]7C[C@@H]7N6C(=O)C(=O)N6CCC(F)(F)CC6)n5)cc4)cc3)c[nH]2)C[C@@H]2C[C@@H]21)N1CCC(F)(F)CC1 (stereo partly drawn) [Compound W-243] | – | – | >100
10 | COC(=O)N[C@H](C(=O)CN1[C@@H]2C[C@@H]2C[C@H]1c1nc2ccc3cc(C#Cc4ccc5c(ccc6nc([C@@H]7C[C@H]8C[C@H]8N7C(=O)[C@@H](NC(=O)OC)C(C)C)[nH]c65)c4)ccc3c2[nH]1)C(C)C | >10 | >10 | –
11 | COC(=O)N[C@H](C(=O)N1[C@H]2C[C@@]2(C)C[C@H]1c1ncc(-c2ccc(-c3ccc(-c4cnc([C@@H]5C[C@@H]6C[C@@H]6N5C(=O)[C@@H](NC(=O)OC)C(C)C)[nH]4)cc3)cc2)[nH]1)C(C)C | >100 | >100 | –
12 | COC(=O)N[C@H](C(=O)N1CCCC1c1cn(-c2ccc(-c3ccc(-n4cnc([C@@H]5CCCN5C(=O)[C@@H](NC(=O)OC)C(C)C)c4)cc3)cc2)cn1)C(C)C (stereo partly drawn) | >10 | >10 | –
13 | COC(=O)N[C@H](C(=O)N1C2CC2CC[C@H]1c1ncc(-c2ccc(-c3ccc(-c4cnc([C@@H]5CCC6CC6N5C(=O)[C@@H](NC(=O)OC)C(C)C)[nH]4)cc3)cc2)[nH]1)C(C)C (stereo partly drawn) | >100 | >100 | –
14 | COC(=O)N[C@H](C(=O)N1C(c2ncc(-c3ccc(-c4ccc(-c5cnc([C@@H]6CCC7CC7N6C(=O)[C@@H](NC(=O)OC)C(C)C)[nH]5)cc4)cc3)[nH]2)CCC2CC21)C(C)C (stereo partly drawn) | >100 | >100 | –
15 | COC(=O)N[C@H](C(=O)N1C[C@@H](C)CC1c1ncc(-c2ccc(-c3ccc4cc(-c5cnc([C@@H]6C[C@H](C)CN6C(=O)[C@@H](NC(=O)OC)C(C)C)[nH]5)ccc4c3)cc2)[nH]1)C(C)C (stereo partly drawn) | <10 | >10 | –
16 | COC(=O)N[C@@H](C(=O)N1CCC[C@H]1c1nc2ccc(C3=NCC(c4ccc(N5CCOCC5)cc4)O3)cc2[nH]1)c1ccccc1 (stereo partly drawn) | <10 | <10 | –
17 | COC(=O)N[C@H](C(=O)N1C[C@H](C)C[C@H]1c1ncc(-c2ccc(-c3ccc4cc(-c5cnc([C@@H]6C[C@@H](C)CN6C(=O)[C@@H](NC(=O)OC)C(C)C)[nH]5)ccc4c3)cc2)[nH]1)C(C)C | <10 | >10 | –
18 | COC(=O)N[C@H](C(=O)CN1C(c2ncc(-c3ccc(C#Cc4ccc5c(ccc6[nH]c([C@@H]7C[C@H]8C[C@H]8N7C(=O)[C@@H](NC(=O)OC)C(C)C)nc65)c4)cc3)[nH]2)C[C@H]2C[C@H]21)C(C)C (stereo partly drawn) | <10 | >10 | –
19 | COC(=O)N[C@H](C(=O)N1CCCC1c1nc2ccc(-c3ccc4cc(-c5ccc6nc([C@@H]7CCCN7C(=O)[C@@H](NC(=O)OC)C(C)C)[nH]c6c5)ccc4n3)cc2[nH]1)C(C)C (stereo partly drawn) | >10 | >10 | –
20 | Cc1nc2cccc(-c3ncc(-c4ccc5nc([C@@H]6CCCN6C(=O)[C@@H](c6ccccc6)N(C)C)[nH]c5c4)o3)c2[nH]1 | >10 | – | –
21 | COC(=O)N[C@H](C(=O)N1C(c2ncc(-c3ccc(-c4cc5cc(-c6c[nH]c([C@@H]7C[C@H]8C[C@H]8N7C(=O)[C@@H](NC(=O)OC)C7CCOCC7)n6)ccc5o4)cc3)[nH]2)C[C@H]2C[C@H]21)C1CCOCC1 (stereo partly drawn) | <10 | <10 | –
22 | CC[C@H]1CC[C@@H](c2ncc(-c3ccc(-c4ccc(-c5cnc([C@@H]6CC[C@H](CC)N6C(=O)[C@@H](NC(=O)OC)C(C)C)[nH]5)cc4)cc3)[nH]2)N1C(=O)C(NC(=O)OC)C(C)C (stereo partly drawn) | >100 | >100 | –
23 | O=C(Cc1ccccc1)N1CCCC1c1nc2cc(-c3ccc4nc([C@@H]5CCCN5C(=O)Cc5ccccc5)[nH]c4c3)ccc2[nH]1 (stereo partly drawn) | <10 | <10 | –
24 | CN(C)[C@@H](C(=O)N1CCC[C@H]1C(=O)Nc1cccc(-c2ncc(-c3ccc4nc([C@@H]5CCCN5C(=O)[C@@H](c5ccccc5)N(C)C)[nH]c4c3)o2)c1)c1ccccc1 | – | 10 | –
25 | CN(C)[C@@H](C(=O)N1CCC[C@H]1C1=NC(c2ccc(OCc3ccc(-c4c[nH]c([C@@H]5CCCN5C(=O)[C@@H](c5ccccc5)N(C)C)n4)cc3)cc2)CN1)c1ccccc1 (stereo partly drawn) | <10 | <10 | –
26 | COC(=O)N[C@H](C(=O)N1[C@@H]2C[C@@H]2C[C@H]1c1ncc(-c2ccc(C#Cc3ccc(-c4cnc([C@@H]5C[C@H]6C[C@H]6N5C(=O)[C@@H](NC(=O)OC)C(C)C)[nH]4)cc3)cc2)[nH]1)C(C)C | <10 | >10 | –
